The values that follow come from PubChem BioAssay AID338 (DTP/NCI, 2004).

The assay relates to BDF1 mice, P388 leukemia (terephthalanilide-resistant), survival T/C. Briefly: NCI In Vivo Anticancer Drug Screen. Data for tumor model P388 Leukemia resistant to A Terephthalanilide; NSC 38280 (intraperitoneal) in B6D2F1 (BDF1) mice. The note with it: endpoint: median survival time, higher = longer survival. The procedure: The antitumor activity of compounds was measured in mice bearing transplantable tumors. Survival or tumor size were measured and the results are expressed as the measurement made in the treated group (T) divided by the measurement made in the vehicle treated control group (C). The tumor model used in this assay is P388 Leukemia resistant to A Terephthalanilide; NSC 38280 (intraperitoneal) in B6D2F1 (BDF1) mice

Setting [1] is: dose: 25.0 micrograms/kg/injection, schedule: Q01DX010 (ip), vehicle: other.
Setting [2] is: dose: 50.0 micrograms/kg/injection, schedule: Q01DX010 (ip), vehicle: other.
Where [3] appears, read: dose: 5.0 mg/kg/injection, schedule: Q01DX010 (ip), vehicle: saline.
[4] abbreviates: dose: 20.0 mg/kg/injection, schedule: Q01DX010 (ip), vehicle: saline.
[5] abbreviates: dose: 40.0 mg/kg/injection, schedule: Q01DX010 (ip), vehicle: saline.
[6] abbreviates: dose: 18.0 mg/kg/injection, schedule: Q01DX010 (ip), vehicle: saline.
[7] abbreviates: dose: 27.0 mg/kg/injection, schedule: Q01DX010 (ip), vehicle: saline.
Where [8] appears, read: dose: 13.3 mg/kg/injection, schedule: Q01DX010 (ip), vehicle: saline.
Setting [9] is: dose: 30.0 mg/kg/injection, schedule: Q01DX010 (ip), vehicle: saline.
[10] abbreviates: dose: 8.0 mg/kg/injection, schedule: Q01DX010 (ip), vehicle: saline.
[11] abbreviates: dose: 16.0 mg/kg/injection, schedule: Q01DX010 (ip), vehicle: saline.

Molecules are shown by their SMILES. Values joined by “and” are separate entries in the source; they are usually repeats but may differ in a detail not shown here. Identical values can stand only once. Inconclusive results and toxic doses are left out. *1 amine or outer side, *2 acyl side, *3 side chain or, on linkers, in order; H or OH if unused. Where a SMILES comes first, the peptide text is derived from it. Bridges are numbered along the chain shown (N, C = ends). Roman numbers before positions name the chains, in order. [ ]: non-standard residue; d: D form. Actinocin(9to1) = Cc1c2oc3c(C)ccc(C(=O)[*:1])c3nc-2c(C(=O)[*:2])c(N)c1=O; aThr = C[C@H](O)[C@H](N)C(=O)O; NMeV = CN[C@H](C(=O)O)C(C)C; Sar = CNCC(=O)O

Turning to `O=C(Nc1ccc(C2=NCCN2)cc1)c1cc(Cl)cc(C(=O)Nc2ccc(C3=NCCN3)cc2)c1`, the T/C runs as follows: (dose: 140.0 mg/kg/injection, schedule: Q01DX010 (ip), vehicle: saline) 100 % of control; (dose: 210.0 mg/kg/injection, schedule: Q01DX010 (ip), vehicle: saline) 100 % of control; (dose: 315.0 mg/kg/injection, schedule: Q01DX010 (ip), vehicle: saline) 100 % of control; (dose: 473.0 mg/kg/injection, schedule: Q01DX010 (ip), vehicle: saline) 94 % of control.
As to `Nc1nc(N)c2nc(CNc3ccc(C(=O)NC(CCC(=O)O)C(=O)O)cc3)cnc2n1` (stereo unspecified), the T/C is 112 % of control under setting [1]; 112 % of control under setting [2]; 150 % of control (dose: 200.0 micrograms/kg/injection, schedule: Q01DX010 (ip), vehicle: other).
In the case of `N#[N+]c1cnc([O-])[nH]c1=O`, the T/C was 113 % of control (dose: 1.25 mg/kg/injection, schedule: Q01DX010 (ip), vehicle: saline); 113 % of control (dose: 2.5 mg/kg/injection, schedule: Q01DX010 (ip), vehicle: saline); 95 % of control and 122 % of control under setting [3].
As for `O=c1[nH]cc(F)c(=O)[nH]1`, the T/C is, setting by setting: under setting [3], 120 % of control; (dose: 10.0 mg/kg/injection, schedule: Q01DX010 (ip), vehicle: saline) 150 % of control and 183 % of control; under setting [4], 170 % of control and 222 % of control; under setting [5], 95 % of control and 111 % of control.
As for `O=C(Nc1ccc(C2=NCCN2)cc1)c1ccc(NC(=O)c2ccc(C3=NCCN3)cc2)cc1`, the T/C by setting is: under setting [6], 100 % of control; under setting [7], 100 % of control; under setting [5], 100 % of control; (dose: 60.0 mg/kg/injection, schedule: Q01DX010 (ip), vehicle: saline) 100 % of control.
As to `O=C(Nc1ccc(C2=NCCN2)cc1)c1ccc(C(=O)Nc2ccc(C3=NCCN3)cc2)cc1`, the T/C by setting is: (dose: 75.0 mg/kg/injection, schedule: Q01DX010 (ip), vehicle: saline) 116 % of control; (dose: 167.0 mg/kg/injection, schedule: Q01DX010 (ip), vehicle: saline) 122 % of control.
Turning to `CC1CN=C(c2ccc(NC(=O)c3cccc(C(=O)Nc4ccc(C5=NCC(C)N5)cc4)c3)cc2)N1` (stereo unspecified), the T/C is 100 % of control (dose: 12.0 mg/kg/injection, schedule: Q01DX010 (ip), vehicle: saline); 100 % of control under setting [6]; 100 % of control under setting [7]; 88 % of control under setting [5].
As for `CNc1nc(Nc2ccc(C3=NCCN3)cc2)nc(Nc2ccc(C3=NCCN3)cc2)n1`, the T/C was 117 % of control under setting [8], 111 % of control under setting [4] and 117 % of control under setting [9].
In the case of `O=C(Nc1ccc(C2=NCCN2)cc1)c1ccc(C(=O)Nc2ccc(C3=NCCN3)cc2)c(NC(=O)c2ccc(C(=O)Nc3cc(C(=O)Nc4ccc(C5=NCCN5)cc4)ccc3C(=O)Nc3ccc(C4=NCCN4)cc3)cc2)c1`, the T/C was 100 % of control (dose: 25.0 mg/kg/injection, schedule: Q01DX010 (ip), vehicle: saline); 94 % of control (dose: 50.0 mg/kg/injection, schedule: Q01DX010 (ip), vehicle: saline); 94 % of control (dose: 100.0 mg/kg/injection, schedule: Q01DX010 (ip), vehicle: saline); 100 % of control (dose: 200.0 mg/kg/injection, schedule: Q01DX010 (ip), vehicle: saline).
On to `OCC1OC(n2cnc3c(Cl)ncnc32)C(O)C1O` (stereo unspecified), for which the T/C by setting is: (dose: 62.5 mg/kg/injection, schedule: Q01DX010 (ip), vehicle: saline) 94 % of control; (dose: 125.0 mg/kg/injection, schedule: Q01DX010 (ip), vehicle: saline) 100 % of control; (dose: 250.0 mg/kg/injection, schedule: Q01DX010 (ip), vehicle: saline) 90 % of control and 94 % of control; (dose: 500.0 mg/kg/injection, schedule: Q01DX010 (ip), vehicle: saline) 90 % of control and 111 % of control.
As for `Cc1c2oc3c(C)ccc(C(=O)N[C@@H]4C(=O)N[C@H](C(C)C)C(=O)N5CCC[C@H]5C(=O)N(C)CC(=O)N(C)[C@@H](C(C)C)C(=O)O[C@H]4C)c3nc-2c(C(=O)N[C@@H]2C(=O)N[C@H](C(C)C)C(=O)N3CCC[C@H]3C(=O)N(C)CC(=O)N(C)[C@@H](C(C)C)C(=O)O[C@H]2C)c(N)c1=O` (I: [aThr][dV]P[Sar][NMeV] / II: [aThr][dV]P[Sar][NMeV]; ester I:1-I:C, II:1-II:C; linker I:N-II:N via Actinocin(9to1)), the T/C by setting is: (dose: 12.5 micrograms/kg/injection, schedule: Q01DX010 (ip), vehicle: other) 111 % of control and 120 % of control; under setting [1], 116 % of control and 120 % of control; under setting [2], 120 % of control and 122 % of control; (dose: 100.0 micrograms/kg/injection, schedule: Q01DX010 (ip), vehicle: other) 115 % of control and 122 % of control.
Turning to `NC(Cc1ccc(N(CCCl)CCCl)cc1)C(=O)O` (stereo unspecified), the T/C was 163 % of control (dose: 2.0 mg/kg/injection, schedule: Q01DX010 (ip), vehicle: other) and 100 % of control (dose: 4.0 mg/kg/injection, schedule: Q01DX010 (ip), vehicle: other).
Consider `C[C@]12C=CC(=O)C=C1CC[C@@H]1[C@@H]2[C@@H](O)C[C@@]2(C)[C@H]1CC[C@]2(O)C(=O)CO`, for which the T/C is 112 % of control (dose: 12.5 mg/kg/injection, schedule: Q01DX010 (sc), vehicle: steriod suspending solution); 118 % of control (dose: 25.0 mg/kg/injection, schedule: Q01DX010 (sc), vehicle: steriod suspending solution); 106 % of control (dose: 50.0 mg/kg/injection, schedule: Q01DX010 (sc), vehicle: steriod suspending solution); 112 % of control (dose: 100.0 mg/kg/injection, schedule: Q01DX010 (sc), vehicle: steriod suspending solution).
As to `CN=C(NC)c1ccc(NC(=O)Nc2ccc(NC(=O)Nc3ccc(C(=NC)NC)cc3)cc2)cc1`, the T/C by setting is: under setting [8], 111 % of control; under setting [4], 94 % of control; under setting [9], 111 % of control.
Consider `Nc1nc(SCc2ccccc2)c2[nH]cnc2n1`, for which the T/C under setting [10] is 105 % of control; the T/C under setting [11] is 100 % of control and 105 % of control; the T/C (dose: 32.0 mg/kg/injection, schedule: Q01DX010 (ip), vehicle: saline) was 121 % of control; the T/C (dose: 64.0 mg/kg/injection, schedule: Q01DX010 (ip), vehicle: saline) is 115 % of control and 122 % of control.
On to `Nc1nc(=S)c2ncn(C3OC(CO)C(O)C3O)c2[nH]1` (stereo unspecified), for which the T/C was 109 % of control (dose: 2.0 mg/kg/injection, schedule: Q01DX010 (ip), vehicle: saline); 104 % of control (dose: 4.0 mg/kg/injection, schedule: Q01DX010 (ip), vehicle: saline); 105 % of control under setting [10]; 105 % of control under setting [11].
